The source made the active and inactive calls. The calls are words filed in the database; no cut-off is given here.
Tests used:
Splenocyte [1] = assay: Immunomodulatory activity in Wistar rat splenocytes assessed as decrease in LPS-induced cell proliferation at 0.1 to 100 uM after 48 hrs by MTT assay; format: functional, cell-based; conditions: dose 0.1-100 µM
Splenocyte [2] = assay: Immunomodulatory activity in Wistar rat splenocytes assessed as decrease in ConA-induced cell proliferation at 0.1 to 500 uM after 48 hrs by MTT assay; format: functional, cell-based; conditions: dose 0.1-500 µM
[3] = Cytotoxicity against Wistar rat splenocytes assessed as reduction in cell viability at 100 to 500 uM after 24 hrs by MTT assay; format: tissue-based; conditions: splenocyte, dose 100-500 µM
[4] = Cytotoxicity against Wistar rat splenocytes assessed as cell viability at >10 uM after 24 to 48 hrs by MTT assay; format: tissue-based; conditions: splenocyte, time 24-48 hrs
Splenocyte [5] = assay: Immunomodulatory activity in Wistar rat splenocytes assessed as decrease in LPS-induced cell proliferation at 500 uM after 48 hrs by MTT assay; format: functional, cell-based
Splenocyte [6] = assay: Immunomodulatory activity in Wistar rat splenocytes assessed as decrease in LPS-induced cell proliferation at 0.1 to 10 uM after 48 hrs by MTT assay; format: functional, cell-based; conditions: dose 0.1-10 µM
[7] = Cytotoxicity against Wistar rat splenocytes assessed as cell viability at 0.1 uM after 48 hrs by MTT assay; format: tissue-based; conditions: splenocyte
[8] = Cytotoxicity against Wistar rat splenocytes assessed as cell viability at 100 uM after 48 hrs by MTT assay relative to control; format: tissue-based, Splenocyte; conditions: read-out: Activity
[9] = Cytotoxicity against Wistar rat splenocytes assessed as reduction in cell viability at 0.1 to 500 uM after 48 hrs by MTT assay; format: tissue-based; conditions: splenocyte, dose 0.1-500 µM
[10] = Cytotoxicity against Wistar rat splenocytes assessed as reduction in cell viability at 100 uM after 48 hrs by MTT assay relative to control; format: tissue-based; conditions: splenocyte

| SMILES | Activity (Splenocyte [1]) | Activity (Splenocyte [2]) | Activity [3] | Activity [4] | Activity (Splenocyte [5]) | Activity (Splenocyte [6]) | Activity [7] | viability at 48 h, 100 µM [8] [%] | Activity [9] | Activity [10] [%] |
| --- | --- | --- | --- | --- | --- | --- | --- | --- | --- | --- |
| C/C1=C\[C@@H]2[C@@H](CC/C(CO)=C/CC1)C2(C)C (relative stereo) | inactive | Active | Toxic | Toxic |  |  |  |  |  |  |
| C[C@H]1CCC2=C(C(C)(C)O)CC(C)(C)C[C@@H]21 (relative stereo) |  | Active | Toxic |  | inactive | Active | Non-Toxic |  |  |  |
| C[C@@H]1/C=C/C(C)(C)[C@H](O)CC/C(CO)=C/CC1 (relative stereo) |  | Active | Toxic |  | inactive | Active |  | 60 | Toxic |  |
| C[C@@H]1/C=C/[C@H](C(C)(C)O)CC/C(CO)=C/CC1 (relative stereo) |  | Active | Toxic | Toxic | inactive | Active |  |  |  |  |
| C[C@@H]1C[C@H]2[C@@H]3CCC4=CC(=O)C=C[C@]4(C)[C@@]3(F)[C@@H](O)C[C@]2(C)[C@@]1(O)C(=O)CO [DEXAMETHASONE] |  |  |  |  |  |  |  |  |  | 65 |
